Counter-ions that a name gives are not always drawn.
Target: T1, Human α-thrombin (Homo sapiens, UniProt P00734)
T1 construct: Human α-thrombin; purchased Sigma Chemical Co. or Hematologic Technologies
Test: Test A: Determination of Thrombin Inhibition with a Chromogenic, Robotic Assay
Format: biochemical
Conditions: chromogenic substrate S-2366 0.30 mmol/L, α-thrombin 0.020 NIHU/mL, 40 minutes incubation at 37° C.
Description: Determination of Thrombin Inhibition with a Chromogenic, Robotic Assay
The thrombin inhibitor potency is measured with a chromogenic substrate method, in a Plato 3300 robotic microplate processor (Rosys AG, CH-8634 Hombrechtikon, Switzerland), using 96-well, half volume microtitre plates (Costar, Cambridge, Mass., USA; Cat No 3690). Stock solutions of test substance in DMSO (72 μL), 0.1-1 mmol/L, are diluted serially 1:3 (24+48 μL) with DMSO to obtain ten different concentrations, which are analysed as samples in the assay. 2 μL of test sample is diluted with 124 μL assay buffer, 12 μL of chromogenic substrate solution (S-2366, Chromogenix, Mölndal, Sweden) in assay buffer and finally 12 μL of α-thrombin solution (Human α-thrombin, Sigma Chemical Co. or Hematologic Technologies) in assay buffer, are added, and the samples mixed. The final assay concentrations are: test substance 0.00068-133 μmol/L, S-2366 0.30 mmol/L, α-thrombin 0.020 NIHU/mL. The linear absorbance increment during 40 minutes incubation at 37° C. is used for calculation of percentage inhibition for the test samples, as compared to blanks without inhibitor.

With CC(C)(C)C[C@@H](N)C(=O)N1[C@@H]2C[C@@H]2C[C@H]1C(=O)NCc1cc(Cl)ccc1-n1cnnn1 [Example 19, (1R,3S,5R)-2-((R)-2-Amino-4,4-dimethyl-pentanoyl)-2-aza-bicyclo[3.1.0]hexane-3-carboxylic acid 5-chloro-2-tetrazol-1-yl-benzylamide hydrochloride] as the compound, how does the IC50 read?
The IC50 was 4 nM.

CC(C)(C)OC[C@@H](N)C(=O)N1[C@H](C(=O)NCc2cc(Cl)ccc2-n2cnnn2)C[C@@H]2C[C@@H]21 [Example 53, (1S,3S,5S)-2-((R)-2-Amino-3-tert-butoxy-propionyl)-2-aza-bicyclo[3.1.0]hexane-3-carboxylic acid 5-chloro-2-tetrazol-1-yl-benzylamide acetate] was tested. Which IC50 did it give?
The IC50 was 5 nM.

O=C(NCc1cc(Cl)ccc1-n1cnnn1)[C@@H]1[C@H]2C[C@H]2CN1C(=O)C(O)Cn1cncn1 (stereo partly drawn) [Example 52, (1S,2S,5R)-3-(2-Hydroxy-3-1,2,4-triazol-1-yl-propionyl)-3-aza-bicyclo[3.1.0]hexane-2-carboxylic acid 5-chloro-2-tetrazol-1-yl-benzylamide] was tested. Which IC50 did it give?
The IC50 was 570 nM.

Which IC50 does the source give for O=C(NCc1cc(Cl)ccc1-n1cnnn1)[C@@H]1[C@H]2C[C@H]2CN1C(=O)[C@H]1COCCN1 [Example 75, (1S,2S,5R)-3-((R)-Morpholine-3-carbonyl)-3-aza-bicyclo[3.1.0]hexane-2-carboxylic acid 5-chloro-2-tetrazol-1-yl-benzylamide acetate] here?
The IC50 was 650 nM.

With CC(C)(C)C[C@@H](N)C(=O)N1C[C@@H]2C[C@@H]2[C@H]1C(=O)NCc1cc(Cl)ccc1-n1cnnn1 [Example 18, (1S,2S,5R)-3-((R)-2-Amino-4,4-dimethyl-pentanoyl)-3-aza-bicyclo[3.1.0]hexane-2-carboxylic acid 5-chloro-2-tetrazol-1-yl-benzylamide hydrochloride] as the compound, how does the IC50 read?
The IC50 was 1 nM.

For O=C(NCc1cc(Cl)ccc1-n1cnnn1)[C@@H]1C[C@@H]2C[C@@H]2N1C(=O)C(O)Cn1cncn1 (some centres unmarked) [Example 51], which IC50 is on record?
Its IC50 is 420 nM.

For O=C([C@H](O)C1CCCCC1)N1CC2CC1(C(=O)NCc1cc(Cl)ccc1-n1cnnn1)C2 [Example 67, 2-((R)-2-Cyclohexyl-2-hydroxy-acetyl)-2-aza-bicyclo[2.1.1]hexane-1-carboxylic acid 5-chloro-2-tetrazol-1-yl-benzylamide], which IC50 is on record?
Its IC50 is 85 nM.

With O=C(NCc1cc(Cl)ccc1-n1cnnn1)[C@@H]1C[C@@H]2C[C@@H]2N1C(=O)C1(O)CCCc2ncccc21 (stereo partly drawn) [Example 77, (1S,3S,5S)-2-(5-Hydroxy-5,6,7,8-tetrahydro-quinoline-5-carbonyl)-2-aza-bicyclo[3.1.0]hexane-3-carboxylic acid 5-chloro-2-tetrazol-1-yl-benzylamide] as the compound, how does the IC50 read?
Its IC50 is 9 nM.

CC(C)(C1CC1)C(O)C(=O)N1C[C@@H]2C[C@@H]2[C@H]1C(=O)NCc1cc(Cl)ccc1-n1cnnn1 (stereo partly drawn) [Example 62, (1S,2S,5R)-3-(3-Cyclopropyl-2-hydroxy-3-methyl-butyryl)-3-aza-bicyclo[3.1.0]hexane-2-carboxylic acid 5-chloro-2-tetrazol-1-yl-benzylamide] was tested. Which IC50 did it give?
The IC50 was 2 nM.

O=C(NCc1cc(Cl)ccc1-n1cncn1)[C@@H]1C[C@@H]2C[C@@H]2N1C(=O)C(O)Cn1cncn1 (stereo partly drawn) [Example 69, (1S,3S,5S)-2-(2-Hydroxy-3-1,2,4-triazol-1-yl-propionyl)-2-aza-bicyclo[3.1.0]hexane-3-carboxylic acid 5-chloro-2-1,2,4-triazol-1-yl-benzylamide] was tested. Which IC50 did it give?
The IC50 was 780 nM.

How did the IC50 turn out when N[C@@H](C(=O)N1[C@H](C(=O)NCc2cc(Cl)ccc2-n2cnnn2)C[C@@H]2C[C@@H]21)c1cccc(Cl)c1 [Example 71, (1S,3S,5S)-2-[(R)-2-Amino-2-(3-chloro-phenyl)-acetyl]-2-aza-bicyclo[3.1.0]hexane-3-carboxylic acid 5-chloro-2-tetrazol-1-yl-benzylamide] was run?
The IC50 was 5 nM.

With CC(C)(C)OC[C@@H](N)C(=O)N1C[C@@H]2C[C@@H]2[C@H]1C(=O)NCc1cc(Cl)ccc1-n1cnnn1 [Example 54, (1S,2S,5R)-3-((R)-2-Amino-3-tert-butoxy-propionyl)-3-aza-bicyclo[3.1.0]hexane-2-carboxylic acid 5-chloro-2-tetrazol-1-yl-benzylamide acetate] as the compound, how does the IC50 read?
The IC50 was 6 nM.

Which IC50 does the source give for O=C(NCc1cc(F)ccc1-n1cnnn1)[C@@H]1C[C@@H]2C[C@@H]2N1C(=O)[C@H](O)c1cccc(Cl)c1 [Example 70, (1S,3S,5S)-2-[(R)-2-(3-Chloro-phenyl)-2-hydroxy-acetyl]-2-aza-bicyclo[3.1.0]hexane-3-carboxylic acid 5-fluoro-2-tetrazol-1-yl-benzylamide] here?
Its IC50 is 36 nM.

Which IC50 does the source give for N[C@H](CO)C(=O)N1[C@@H]2C[C@@H]2C[C@H]1C(=O)NCc1cc(Cl)ccc1-n1cnnn1 [Example 50, (1R,3S,5R)-2-((R)-2-Amino-3-hydroxy-propionyl)-2-aza-bicyclo[3.1.0]hexane-3-carboxylic acid 5-chloro-2-tetrazol-1-yl-benzylamide hydrochloride] here?
Its IC50 is 2500 nM.

For O=C(NCc1cc(Cl)ccc1-n1cnnn1)[C@@H]1C[C@@H]2C[C@@H]2N1C(=O)C1(O)CCCc2ncccc21 (stereo partly drawn) [Example 76, (1S,3S,5S)-2-(5-Hydroxy-5,6,7,8-tetrahydro-quinoline-5-carbonyl)-2-aza-bicyclo[3.1.0]hexane-3-carboxylic acid 5-chloro-2-tetrazol-1-yl-benzylamide], which IC50 is on record?
Its IC50 is 11 nM.

O=C(NCc1cc(Cl)ccc1-n1cnnn1)[C@@H]1C[C@@H]2C[C@@H]2N1C(=O)[C@H](O)c1cc(Cl)cc(OC(F)F)c1 [Example 37, (1S,3S,5S)-2-[(R)-2-(3-Chloro-5-difluoromethoxy-phenyl)-2-hydroxy-acetyl]-2-aza-bicyclo[3.1.0]hexane-3-carboxylic acid 5-chloro-2-tetrazol-1-yl-benzylamide] was tested. Which IC50 did it give?
The IC50 was 4 nM.

For N[C@@H](C(=O)N1[C@H](C(=O)NCc2cc(Cl)ccc2-n2cnnn2)C[C@@H]2C[C@@H]21)c1ccc(O)cc1 [Example 48, (1S,3S,5S)-2-[(R)-2-Amino-2-(4-hydroxy-phenyl)-acetyl]-2-aza-bicyclo[3.1.0]hexane-3-carboxylic acid 5-chloro-2-tetrazol-1-yl-benzylamide hydrochloride], which IC50 is on record?
Its IC50 is 22 nM.

For CC(C)(C)OC[C@@H](O)C(=O)N1CC2CC1(C(=O)NCc1cc(Cl)ccc1-n1cnnn1)C2 [Example 66, 2-((R)-3-tert-Butoxy-2-hydroxy-propionyl)-2-aza-bicyclo[2.1.1]hexane-1-carboxylic acid 5-chloro-2-tetrazol-1-yl-benzylamide], which IC50 is on record?
Its IC50 is 67 nM.

Which IC50 does the source give for CC(C)(C)C[C@@H](N)C(=O)N1[C@H](C(=O)NCc2cc(Cl)ccc2-n2cnnn2)C[C@@H]2C[C@@H]21 [Example 20, (1S,3S,5S)-2-((R)-2-Amino-4,4-dimethyl-pentanoyl)-2-aza-bicyclo[3.1.0]hexane-3-carboxylic acid 5-chloro-2-tetrazol-1-yl-benzylamide hydrochloride] here?
The IC50 was 2 nM.

For O=C([C@H](O)c1ccccc1)N1CC2CC1(C(=O)NCc1cc(Cl)ccc1-n1cnnn1)C2 [Example 30, 2-((R)-2-Hydroxy-2-phenyl-acetyl)-2-aza-bicyclo[2.1.1]hexane-1-carboxylic acid 5-chloro-2-tetrazol-1-yl-benzylamide], which IC50 is on record?
Its IC50 is 47 nM.

Which IC50 does the source give for N[C@H](CC1CCCCC1)C(=O)N1CC2CC1(C(=O)NCc1cc(Cl)ccc1-n1cnnn1)C2 [Example 68, 2-((R)-2-Amino-3-cyclohexyl-propionyl)-2-aza-bicyclo[2.1.1]hexane-1-carboxylic acid 5-chloro-2-tetrazol-1-yl-benzylamide hydrochloride] here?
The IC50 was 4 nM.

For CC(C)(C1CC1)C(O)C(=O)N1[C@@H]2C[C@@H]2C[C@H]1C(=O)NCc1cc(Cl)ccc1-n1cnnn1 (stereo partly drawn) [Example 60, (1R,3S,5R)-2-(3-Cyclopropyl-2-hydroxy-3-methyl-butyryl)-2-aza-bicyclo[3.1.0]hexane-3-carboxylic acid 5-chloro-2-tetrazol-1-yl-benzylamide], which IC50 is on record?
The IC50 was 14 nM.

With O=C(N1CC2CC1(C(=O)NCc1cc(Cl)ccc1-n1cnnn1)C2)C1(O)CCOc2ccccc21 (racemic) [Example 64, (rac)-2-(4-Hydroxy-1-benzopyran-4-carbonyl)-2-aza-bicyclo[2.1.1]hexane-1-carboxylic acid 5-chloro-2-tetrazol-1-yl-benzylamide] as the compound, how does the IC50 read?
The IC50 was 40 nM.

Which IC50 does the source give for NC(C(=O)N1C[C@@H]2C[C@@H]2[C@H]1C(=O)NCc1cc(Cl)ccc1-n1cnnn1)c1ccccc1F (stereo partly drawn) [Example 74, (1S,2S,5R)-3-[2-Amino-2-(2-fluoro-phenyl)-acetyl]-3-aza-bicyclo[3.1.0]hexane-2-carboxylic acid 5-chloro-2-tetrazol-1-yl-benzylamide] here?
Its IC50 is 29 nM.

How did the IC50 turn out when CC(C)(C1CC1)C(O)C(=O)N1[C@H](C(=O)NCc2cc(Cl)ccc2-n2cnnn2)C[C@@H]2C[C@@H]21 (stereo partly drawn) [Example 33, (1S,3S,5S)-2-(3-Cyclopropyl-2-hydroxy-3-methyl-butyryl)-2-aza-bicyclo[3.1.0]hexane-3-carboxylic acid 5-chloro-2-tetrazol-1-yl-benzylamide] was run?
The IC50 was 10 nM.

Which IC50 does the source give for NC(C(=O)N1[C@H](C(=O)NCc2cc(Cl)ccc2-n2cnnn2)C[C@@H]2C[C@@H]21)C1CCS(=O)(=O)CC1 (stereo partly drawn) [Example 72, (1S,3S,5S)-2-[2-Amino-2-(1,1-dioxo-hexahydro-1λ^6-thiopyran-4-yl)-acetyl]-2-aza-bicyclo[3.1.0]hexane-3-carboxylic acid 5-chloro-2-tetrazol-1-yl-benzylamide] here?
Its IC50 is 240 nM.
